According to patent US20230339991A1, “HYPOXIA-ACTIVATED DNA ALKYLATING AGENT AND MEDICAL USE THEREOF” (ASCENTAWITS PHARMACEUTICALS, LTD., priority 2020, published 2023):
Several values for one entry are separate records, joined by “and”; a condition that tells them apart may be missing. Equal values may be shown once. Values belong to the compound of their own block, whether it stands above or below them.

Assays:
[1] = system: HuPrime pancreatic cancer PA3546 subcutaneous xenograft PDX tumor; assay: PA3546 human pancreatic cancer subcutaneous PDX model; conditions: 120 mg/kg i.p. QW×3; Day 25
P-gp = P-gp (Homo sapiens, UniProt P08183); assay: P-gp substrate evaluation, MDCKII-MDR1 penetration test; conditions: dog; for Papp A→B at 2 h / Papp B→A at 2 h: MDCK-MDR1
Description: (1) MDCKII-MDR1 cells were cultured in the cell culture bottle. The conditions of the incubator were 37° C., 5% of CO2, and 95% of the relative humidity. When the cell growth confluence was up to 70-90%, the cells were inoculated to the transwell.
The cell suspension was transferred to the upper compartment of the 96-well transwell, wherein each upper compartment contains 50 μL of the cell suspension. The final inoculum density was 5.45×10^5 cells/cm^2.
(1) The transwell culture plate of the MDCKII-MDRT cells was taken out from the incubator. The cell monolayer membrane was rinsed two times with the buffer solution and incubated at 37° C. for 30 min.
(2) The transport rate that the compound was transported from the top-end to the base-end was tested. 75 μL of the buffer solution contained the sample was added to each upper compartment (top-end), and 235 μL of the buffer solution was added to each lower compartment (base-end).
(3) The transport rate that the compound was transported from the base-end to the top-end was tested. 75 μL of the buffer solution was added to each upper compartment (top-end), and 235 μL of the buffer solution contained the sample was added to each lower compartment (base-end).
(6) The upper and lower transits were merged up and then incubated at 37° C. for 2 h.
(7) After the incubation was finished, 50 μL of the samples from each well of the upper compartment and the lower compartment of the transwell culture plate were respectively added to new sample tubes. 200 μL of the acetonitrile containing the internal standard (100 nM Alprazolam, 200 nM Labetalol, 200 nM caffeine and 2 μM Ketoprofen) was added to each sample tube. After the sample tubes were vortexed for 10 min, they were centrifuged at 3220 g for 30 min. 100 μL of the supernatant was taken and diluted with the same volume of the water to perform the LC-MS/MS analysis. Each sample was adopted to the three parallel incubation.
The peak area was calculated by the result of the ion chromatography. The permeability coefficient (Papp, unit: cm/s×10^−6) of the compound was calculated by the formula: […]
In the formula, “VA” refers to the volume of the solution on the acceptor (Ap→Bl was 0.235 mL, and Bl→Ap was 0.075 mL), “Area” refers to the area of the permeable membrane of the 96-well transwell (0.143 cm^2), “time” refers to the incubation time (in second), “[drug]acceptor” refers to the drug concentration of the acceptor after the incubation, and “[drug]initial, donor” refers to the initial concentration of the drug administration before the incubation.
The efflux ratio was calculated by the following formula: […]
In the formula, “Papp (B-A)” refers to the permeability coefficient from the base-end to the top-end, and the term “Papp (A-B)” refers to the permeability coefficient from the top-end to the base-end.
The recovery was calculated by the following formula: […]
In the formula, “VA” refers to the volume of the solution on the acceptor (mL), “VD” refers to the volume of the solution on the donor (mL), “[drug]acceptor” refers to the drug concentration of the acceptor after the incubation, “[drug]donor” refers to the drug concentration of the donor after the incubation, and the term “[drug]initial, donor” refers to the initial concentration of the drug administration before the incubation.

[2] = system: human lung cancer NCI-H460 subcutaneous xenograft; assay: Human lung cancer NCI-H460 subcutaneous xenograft model, compounds B and C; type: in vivo, BALB/c nude mice
Description: BALB/c nude mice were subcutaneously inoculated with human lung cancer NCI-H460 cells to establish human lung cancer subcutaneous transplantation tumor model. […] The positive drug Irinotecan 40 mg/kg group was administered by intraperitoneal injection once every 4 days for 7 times, and observed for 4 days.

Plasma stability, rat = conditions: Rat plasma; after 30 minutes
Description: (§1) The frozen plasma was immediately melted in a water bath of 37° C. The plasma was centrifuged at 3, 220 g for 10 minutes to remove the blood clots and the supernatant was collected into a new test tube. The pH of the plasma was checked and recorded. Note: a. Only plasma that has been melted no more than twice since arrival was used; b. Only plasma in the range of pH 7 to pH 8 was used.
(§2) 1 mM of working solutions of the test compound and the control compound mevinolin were prepared in DMSO. 1 mM of the working solution of the control compound solution in […] was prepared in acetonitrile. 4 μL of the working solution was added to 796 μL of pre-incubated plasma to achieve 5 μM of final concentration. The final concentration of solvent was 0.5%.
[…] The assay is performed in duplicate. At the end of the two hour incubation, 300 μL of quenched solution at room temperature (acetonitrile containing internal standards (acetonitrile, 100 nM Alprazolam, 500 nM Labetalol and 2 μM ketoprofen)) was added to terminate the reaction. Samples at time 0 were prepared by adding 50 μL of standard addition plasma to the new test tubes with 300 μL of quenched solution at room temperature. The test tubes were mixed by vortex for 5 minutes. The samples in the plates were centrifuged at 3, 220×g for 30 minutes at 4° C. to precipitate the proteins. 100 μL of supernatant was transferred to a new plate. The supernatant was diluted with 100 μL of water, mixed well and analysed using LC-MS/MS.

Plasma stability, dog = conditions: Dog plasma; after 30 minutes
Description: as §1, §2
The aliquots of 50 μL of the standard addition plasma were added to new test tubes and incubated in the water bath of 37° C. at approximately 60 rpm for 2 hours. The assay is performed in duplicate. At the end of the two hour incubation, 300 μL of quenched solution at room temperature (acetonitrile containing internal standards (acetonitrile, 100 nM Alprazolam, 500 nM Labetalol and 2 μM ketoprofen)) was added to terminate the reaction. Samples at time 0 were prepared by adding 50 μL of standard addition plasma to the new test tubes with 300 μL of quenched solution at room temperature. The test tubes were mixed by vortex for 5 minutes. The samples in the plates were centrifuged at 3, 220×g for 30 minutes at 4° C. to precipitate the proteins. 100 μL of supernatant was transferred to a new plate. The supernatant was diluted with 100 μL of water, mixed well and analysed using LC-MS/MS.

[3] = system: human lung cancer NCI-H460-Luc2 intracranial transplantation tumor; conditions: 20 mg/kg i.p. QW×3; 11 days after grouping
Description: BALB/c nude mice were inoculated intracranially with human lung cancer NCI-H460-Luc2 cells to establish human lung cancer intracranial transplantation tumor model. […] The relative tumor inhibition rate TGI (%) was calculated based on tumor biofluorescence value and the efficacy was evaluated.

Plasma stability, human = type: in vitro ADME; conditions: Human plasma; after 30 minutes; 5 μM; 37° C.
Description: (§3) The pH of the plasma was checked and recorded. Note: a.
(§4) The final concentration of solvent was 0.5%.
(§5) The assay is performed in duplicate.

Plasma stability, mouse = type: in vitro ADME; conditions: Mouse plasma; after 30 minutes
Description: as §3, §4, §5

Plasma stability, monkey = type: in vitro ADME; conditions: Monkey plasma; after 30 minutes
Description: as §3, §4, §5

[4] = system: human liver cancer HepG2 subcutaneous xenograft; assay: Human liver cancer HepG2 subcutaneous xenograft model; type: in vivo, BALB/c nude mice
Text: BALB/c nude mice were subcutaneously inoculated with human liver cancer HepG2 cells to establish human liver cancer subcutaneous transplantation tumor model.

mice = conditions: prior literature WO2016210175A1, CN108024974A; cited from earlier work
[5] = MDCK-MDR1, Recovery (%) AP-BL, verapamil 0 μM
[6] = MDCK-MDR1, Recovery (%) BL-AP, verapamil 0 μM
[7] = MDCK-MDR1, with verapamil 100 μM (in donor and acceptor buffer), Recovery (%) AP-BL, verapamil 100 μM
[8] = MDCK-MDR1, with verapamil 100 μM (in donor and acceptor buffer), Recovery (%) BL-AP, verapamil 100 μM

P-gp, sequence (P08183 whole entry): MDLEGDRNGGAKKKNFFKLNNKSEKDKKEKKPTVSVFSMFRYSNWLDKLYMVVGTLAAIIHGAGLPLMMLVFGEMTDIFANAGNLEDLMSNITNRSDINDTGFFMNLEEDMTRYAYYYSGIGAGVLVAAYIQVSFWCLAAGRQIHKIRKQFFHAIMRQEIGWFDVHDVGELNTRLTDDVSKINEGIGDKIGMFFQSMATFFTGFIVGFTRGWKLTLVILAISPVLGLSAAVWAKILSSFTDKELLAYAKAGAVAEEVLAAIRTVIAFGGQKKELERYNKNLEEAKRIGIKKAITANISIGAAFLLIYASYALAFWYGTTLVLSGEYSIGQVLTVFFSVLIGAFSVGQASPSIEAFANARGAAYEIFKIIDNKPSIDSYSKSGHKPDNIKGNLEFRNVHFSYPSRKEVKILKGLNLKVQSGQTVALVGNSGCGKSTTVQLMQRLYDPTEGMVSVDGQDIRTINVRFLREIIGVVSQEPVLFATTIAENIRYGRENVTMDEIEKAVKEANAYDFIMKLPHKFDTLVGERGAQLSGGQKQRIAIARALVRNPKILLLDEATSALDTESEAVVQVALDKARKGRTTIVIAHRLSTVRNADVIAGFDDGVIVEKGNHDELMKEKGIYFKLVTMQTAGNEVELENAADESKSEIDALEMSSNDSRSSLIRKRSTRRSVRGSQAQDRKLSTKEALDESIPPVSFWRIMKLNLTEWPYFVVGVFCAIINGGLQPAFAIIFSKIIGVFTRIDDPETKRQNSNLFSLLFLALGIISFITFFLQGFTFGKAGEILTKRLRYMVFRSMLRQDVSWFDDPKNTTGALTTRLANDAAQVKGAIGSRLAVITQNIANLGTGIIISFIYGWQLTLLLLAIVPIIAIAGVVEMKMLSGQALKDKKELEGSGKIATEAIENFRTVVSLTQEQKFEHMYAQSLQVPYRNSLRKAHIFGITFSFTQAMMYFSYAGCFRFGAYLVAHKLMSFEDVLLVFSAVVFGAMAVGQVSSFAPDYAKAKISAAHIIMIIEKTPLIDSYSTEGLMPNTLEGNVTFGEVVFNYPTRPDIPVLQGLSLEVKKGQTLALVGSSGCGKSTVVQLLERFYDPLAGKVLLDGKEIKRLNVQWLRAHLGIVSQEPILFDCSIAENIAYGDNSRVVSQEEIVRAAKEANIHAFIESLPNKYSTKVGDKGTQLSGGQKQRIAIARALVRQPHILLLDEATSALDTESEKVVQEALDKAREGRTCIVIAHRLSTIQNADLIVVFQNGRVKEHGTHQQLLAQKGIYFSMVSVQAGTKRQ

Structure (SMILES): Nc1ccn([C@@H]2O[C@H](CO)[C@@H](O)C2(F)F)c(=O)n1 [Gemcitabine, reference compound]
- relative tumor inhibition rate TGI (%) [1]: 45.31%

- Papp A→B at 2 h (P-gp): 1.89 ×10⁻⁶ cm/s
- Papp B→A at 2 h (P-gp): 30.5 ×10⁻⁶ cm/s
- recovery at 2 h (P-gp; [5]): 79%
- recovery at 2 h (P-gp; [6]): 63.4%
- recovery at 2 h (P-gp; [7]): 83%
- recovery at 2 h (P-gp; [8]): 87.6%
Structure (SMILES): Cc1ccc(NC(=O)c2ccc(CN3CCN(C)CC3)cc2)cc1Nc1nccc(-c2cccnc2)n1 [Imatinib]

Structure (SMILES): CCc1c2c(nc3ccc(OC(=O)N4CCC(N5CCCCC5)CC4)cc13)-c1cc3c(c(=O)n1C2)COC(=O)[C@]3(O)CC [Irinotecan, reference compound]
- relative tumor inhibition rate TGI (%) ([2]; 40 mg/kg, Q4D×7, i.p., day 28): 79.03%
- drug toxicity (weight loss / death) ([2]; at the tested dosage): a certain drug toxicity

Structure (SMILES): CC[C@H](C)C(=O)O[C@H]1C[C@@H](C)C=C2C=C[C@H](C)[C@H](CC[C@@H]3C[C@@H](O)CC(=O)O3)[C@H]21 [Lovastatin, reference compound]
- Remaining percentage (Plasma stability, rat): 0.21% and 0.19%
- Remaining percentage (Plasma stability, dog): 58.73%

- Papp A→B at 2 h (P-gp): 27.6 ×10⁻⁶ cm/s
- Papp B→A at 2 h (P-gp): 26.5 ×10⁻⁶ cm/s
- recovery at 2 h (P-gp; [5]): 96.2%
- recovery at 2 h (P-gp; [6]): 98.5%
Structure (SMILES): COCCc1ccc(OCC(O)CNC(C)C)cc1 (centres unmarked) [Metoprolol]

Structure (SMILES): CC(=O)O[C@H]1C(=O)[C@@]2(C)[C@H]([C@H](OC(=O)c3ccccc3)[C@]3(O)C[C@H](OC(=O)[C@H](O)[C@@H](NC(=O)c4ccccc4)c4ccccc4)C(C)=C1C3(C)C)[C@]1(OC(C)=O)CO[C@@H]1C[C@@H]2O [Paclitaxel, reference compound]
- mean biofluorescence value [3]: 4184.52 E+05 photon/second

Structure (SMILES): CC(C)[N+](C)(CCOC(=O)C1c2ccccc2Oc2ccccc21)C(C)C [Propanthine, reference compound]
- Remaining percentage (Plasma stability, human): 0.07% and 3.32%
- Remaining percentage (Plasma stability, mouse): 1.98%
- Remaining percentage (Plasma stability, monkey): 54.38%

Structure (SMILES): CNC(=O)c1cc(Oc2ccc(NC(=O)Nc3ccc(Cl)c(C(F)(F)F)c3)cc2)ccn1 [Sorafenib, reference compound]
- cure rate ([4]; 30 mg/kg (Group 2)): 20%
- relative tumor inhibition rate TGI (%) ([4]; 30 mg/kg, QD×21 Days, intragastric, Day 45): 48.11%

Structure (SMILES): C[C@@H](OP(=O)(N1CC1)N1CC1)c1ccc([N+](=O)[O-])cc1 [TH2565]
- MTD Result (mice): 2 mg/kg

Structure (SMILES): C[C@H](OP(=O)(N1CC1)N1CC1)c1ccc([N+](=O)[O-])cc1 [TH2566]
- MTD Result (mice): 2 mg/kg

- Papp A→B at 2 h (P-gp): 11 ×10⁻⁶ cm/s
- Papp B→A at 2 h (P-gp): 31.8 ×10⁻⁶ cm/s
- recovery at 2 h (P-gp; [5]): 90.7%
- recovery at 2 h (P-gp; [6]): 78.5%
- recovery at 2 h (P-gp; [7]): 94.2%
- recovery at 2 h (P-gp; [8]): 88.5%
Structure (SMILES): COc1cc2nc(N3CCN(C(=O)c4ccco4)CC3)nc(N)c2cc1OC [prazosin]
